In patent US9724338B2, “Methods of using (+)-1,4-dihydro-7-[(3S,4S)-3-methoxy-4-(methylamino)-1-pyrrolidinyl]-4-OXO-1-(2-thiazolyl)-1,8-naphthyridine-3-carboxylic acid for treatment of antecedent hematologic disorders” (SUNESIS PHARMACEUTICALS, INC., priority 2007, dated 2017):

What was measured:
[1] = Solubility of SNS-595 in compositions for injection or intravenous infusion (Example 1); assay type: physicochemical; conditions: Acidic compositions (<pH 4)
Text: The resulting composition is also suitable for lyophilization. The lyophilized form is then reconstituted with sterile water to the appropriate concentration prior to use.

[2] = tested on: MDS that had transformed to refractory CMML (progressed to AML); experiment: Clinical study: treatment with SNS-595 of a patient with MDS transformed to refractory CMML (Example 2); assay type: in vivo, human; conditions: 72 mg/m^2 once per week for three weeks; for Peripheral Blasts: slow IV push
Procedure: A patient with MDS that had transformed to refractory CMML was enrolled in this study. The patient was diagnosed about 26 months prior to the study and was given 8 cycles of azacitadine (Vidaza®) about 10 months prior to the study. They were then treated with mitoxantrone+VP16 for 1 cycle, about 4 months prior to the study. […] The patient had initial marrow blast count of 39%. The following observations were noted on days 15 and 35.

[3] = tested on: relapsed CMML (transformed to AML); experiment: Clinical study: treatment with SNS-595 of a patient with relapsed CMML (Example 3); assay type: in vivo, human; conditions: 50 mg/m^2 twice a week; for Marrow blasts: slow IV push
Procedure: A patient with relapsed CMML (transformed to AML) was enrolled. The patient was diagnosed about 17 months prior to the study, was treated with 1 cycle of a Southwest Oncology Group (SWOG) regimen after diagnosis. They were given 4 cycles of azacitidine (Vidaza®) about 14 months prior to the study and 1 cycle of decitabine, about 6 months before the study.

[4] = tested on: advanced or refractory acute leukemias; experiment: Clinical study: dose-escalating treatment of acute leukemia with SNS-595 (Example 4); assay type: in vivo, human
Text: Minimum cycle length was 42 days for Arm A and 39 days for Arm B, respectively. Additional cycles were permitted if patients achieved stable disease or better. […] Pre- and post-dose bone marrow aspirates were obtained from a subset of patients to assess biomarkers.

[5] = Arm A, weekly x3, dose escalation to 90 mg/m^2

For `CN[C@H]1CN(c2ccc3c(=O)c(C(=O)O)cn(-c4nccs4)c3n2)C[C@@H]1OC` [SNS-595, (+)-1,4-dihydro-7-[(3S,4S)-3-methoxy-4-(methylamino)-1-pyrrolidinyl]-4-oxo-1-(2-thiazolyl)-1,8-naphthyridine-3-carboxylic acid], the Solubility [1] was “increased solubility”, the “Clinical outcome of treatment” value ([2]; one patient) was “clinical benefit with reduction in splenomegaly and blast counts” and the Ultimate disease status ([2]; one patient) was “progressive disease”. For the same molecule, the “White blood cell (WBC) count, earlier value ('was')” value ([2]; Around Day 35, before rise with Necrotizing fasciitis (NF) infection) was 7000, the “Absolute neutrophil count (ANC)” value ([2]; Around Day 35) was 3139 and the “Peripheral Blasts” value ([2]; Around Day 35, one patient) was 33%. For the same molecule, the “White blood cell (WBC) count” value ([2]; Around Day 35, patient had Necrotizing fasciitis (NF) infection) was 16000, the “Absolute neutrophil count (ANC)” value ([2]; Day 15) was 94 and the “White blood cell (WBC) count” value ([2]; Day 15) was 600. The “Peripheral Blasts” value ([2]; Day 15, one patient) was “No blasts”, the “Clinical outcome of treatment” value ([3]; one patient) was “clinical benefit (i.e. hematological improvement) with reduction in blast counts” and the “Absolute neutrophil count (ANC)” value ([3]; At the time of undergoing treatment with third cycle) was 1600. The Marrow blasts ([3]; Post Cycle 1, baseline 20% blasts) was 8%, the Circulating blasts ([3]; Post Cycle 2) was 4% and the Marrow blasts ([3]; Post Cycle 2) was 1%. For the same molecule, the Circulating blasts ([3]; Post Cycle 3) was 8%, the Circulating blasts ([3]; Post Cycle 4) was 12% and the “Dose-limiting toxicity (DLT)” value ([4]; Arm A, 27 mg/m^2 weekly dose (also had progressive disease)) was “G4 myelosuppression”. The “Complete Responses (CR)” value ([4]; Arm A, 50 mg/m^2 dose level) was 1 patient, the “Dose-limiting toxicity (DLT)” value ([4]; Arm A, 50 mg/m^2 weekly dose) was “prolonged myelosuppression” and the “Response of a patient with AML and splenomegaly” value ([4]; Arm A, 72 mg/m^2) was “clinical benefit with reduction in splenomegaly and blast counts”. The “Dose-limiting toxicity (DLT)” value ([4]; Arm A, 72 mg/m^2 weekly dose) was “bowel obstruction”, the “Clinical activity: reductions in marrow blasts to ≦5%” value ([4]; Arm A, doses at or above 50 mg/m^2) was 5 patients and the “Drug-related G3 & 4 events: diarrhea” value ([4]; Arm A, weekly x3) was 1 patient. The “Drug-related G3 & 4 events: stomatitis” value ([4]; Arm A, weekly x3) was 3 patients, the “Non-dose-limiting toxicities (non-DLTs)” value [4, 5] was “nausea/vomiting and diarrhea” and the “Number of dose-limiting toxicities (DLTs) observed” value [4, 5] was “Three”. The “Clinical activity: reductions in marrow blasts to ≦5%” value ([4]; Arm B, 40 mg/m^2) was 1 patient, the “Complete Responses (CR)” value ([4]; Arm B, 40 mg/m^2 level) was 1 patient and the “Response of a patient with AML and splenomegaly” value ([4]; Arm B, 50 mg/m^2 dose level, patient had G3 mucositis) was “partial response”. The G3 mucositis ([4]; Arm B, twice weekly x2, 40 mg/m^2) was “two patients out of 11”, the “Dose-limiting toxicity (DLT) of Grade (G) 3 mucositis” value ([4]; Arm B, twice weekly x2, 50 mg/m^2 dose level) was 3 patients and the “Tolerability in patients with advanced leukemias” value ([4]; Arms A and B) was “well-tolerated”.
